Experimental data published in patent US11975111B2, “Dactinomycin compositions and methods for the treatment of myelodysplastic syndrome and acute myeloid leukemia” (Tiziana Life Sciences PLC, priority 2016, dated 2024).
*1 amine or outer side, *2 acyl side, *3 side chain or, on linkers, in order; H or OH if unused. Where a SMILES comes first, the peptide text is derived from it. Bridges are numbered along the chain shown (N, C = ends). Roman numbers before positions name the chains, in order. [ ]: non-standard residue; d: D form. Actinocin(9to1) = Cc1c2oc3c(C)ccc(C(=O)[*:1])c3nc-2c(C(=O)[*:2])c(N)c1=O; NMeV = CN[CH](C(=O)O)C(C)C; Sar = CNCC(=O)O

Key:
[1] = Single dose intravenous tolerability in rats, 900 μg/kg; assay type: in vivo, Female Sprague Dawley rats; details: for clinical observations, signs of toxicity: post-dose observation
Protocol: A side by side comparison of the tolerability of free actinomycin D (i.e., not in a nanoparticle) and four compositions comprising actinomycin D nanoparticles (NP-ActD) formulations in rats when dosed by intravenous administration.
Female Sprague Dawley rats (HSd:SD), 6-8 weeks and 150-175 g at dosing were used for these studies. This is a single dose study with observations for 14 days post-dose. On day 1 of the study, each animal received either 900 μg/kg of the free actinomycin D or a NP-ActD formulations (900 μg/kg of the active) in a fixed volume of 1 mL/kg according to the study design in the Table below.
The following parameters were monitored: clinical observations daily, mortality, body weights, and food consumption. A full necropsy will be conducted on Day 14 post-dose, at which time organ weights and macroscopic findings will be determined. The organs will be preserved for future histology and the lungs, liver, pancreas, spleen, brain and kidneys will be frozen in liquid nitrogen for measurement of actinomycin D/NP-ActD accumulation.
Blood was collected for pharmacokinetic evaluation following dosing on Day 1 at 0.083, 0.25, 0.5, 1, 2, 6, and 24 hours post dose. Serum samples will be collected for clinical chemistry and whole blood samples for hematology.

[2] = system: NPM1-mutated cell line OCI/AML3; test: Act-D induced nucleolar disintegration and apoptosis (NPM1/DAPI photographs); assay type: cell-based; details: OCI/AML3, FIG. 3
Source text: NPM1=Nucleophosmin and DAPI=4′,6-diamidino-2-phenylindole—a fluorescent stain that binds strongly to A-T rich regions in DNA.

p53 = test: Western blots of p53 activation in patient tumor cells; assay type: cell-based, human; details: NPM1-mutated AML tumor cells contacted in vitro or in vivo, 2 cycles of 5 consecutive days at 12.5 μg/kg
[3] = cited from earlier work
[4] = Tolerability in rats, 0.5 mg/kg IV, body weight; assay type: in vivo; details: over 7 days post treatment
Protocol: (§1) Free and formulated actinomycin D (0.5 mg/kg) was administered via IV
(§2) In another experiment, rats were also administered a single dose (0.5 mg/kg) of free and formulated Act D via IV (intravenous) injection.

[5] = Pharmacokinetics in rats, single dose 0.3 mg/kg IV; assay type: in vivo
Protocol: Rats administered single dose (0.3 mg/kg) of unformulated and formulated Actinomycin D via IV injection. (FIG. 31)
Processed plasma samples at indicated times extracted in mixture of methanol and formic acid to determine total (free and encapsulated) API in systemic circulation.

NPM1-mutated AML = test: Treatment of AML patients with dactinomycin alone or with low-dose cytarabine; assay type: in vivo, human
Protocol: FIG. 5 is a chart showing sequencing by the TruSight Myeloid Panel.—mutated genes (*).
FIG. 7 is a photograph of a computerized tomography (CT) scan showing pneumonitis in a subject administered dactinomycin at 15 μg/kg for 5 days.
FIGS. 9A and B are a pair of photographs depicting a bone marrow (BM) examination before and after therapy with dactinomycin alone.
Complete blood count (CBC) d=46, white blood cell 4130/mm^3, neutrophil percent (N=66%), hemoglobin (Hb)=7.7 g/dL, platelet (PLT) count 192.000/mm^3. Erythropoietin (EPO) dosage=17.8 mUl/ml (inappropriate response). Patient started on Darbopoetina.
Dactinomycin compositions of the disclosure may be administered with FLT3 inhibitors. […] There are two types of FLT3 mutations: internal tandem duplications (ITD) near the juxtamembrane domain of the receptor and point mutations in the activation loop of the tyrosine kinase domain (TKD mutations). TKD mutations comprise approximately 7% of patients, while ITD mutations are less prevalent in pediatrics and AML patients who were previously categorized as having MDS. (Fathi, A. T. et al. Eur. J. Haematol. 2017, 98: 330-336.)

[6] = Plasma dactinomycin (CMAX, 6 hr) in rat tolerability study, 0.5 mg/kg IV; assay type: in vivo; details: rats, comparison in words
Protocol: as §1, §2

## Cc1c2oc3c(C)ccc(C(=O)NC4C(=O)NC(C(C)C)C(=O)N5CCCC5C(=O)N(C)CC(=O)N(C)C(C(C)C)C(=O)OC4C)c3nc-2c(C(=O)NC2C(=O)NC(C(C)C)C(=O)N3CCCC3C(=O)N(C)CC(=O)N(C)C(C(C)C)C(=O)OC2C)c(N)c1=O (stereo not drawn) [dactinomycin, 2-amino-N,N′-bis(hexadecahydro-2,5,9-trimethyl-6,13-bis(1-methylethyl)-1,4,7,11,14-pentaoxo-1H-pyrrolo(2,1-I)(1,4,7,10,13)oxatetra-azacyclohexadecin-10-yl)-4,6-dimethyl-3-oxo-3H-phenoxazine-1,9-dicarboxamide] (I: TVP[Sar][NMeV] / II: TVP[Sar][NMeV]; ester I:1-I:C, II:1-II:C; linker I:N-II:N via Actinocin(9to1); configuration not given here)
[1]; 13 days post-dose
  mortality rate: about 80%
[1]; Day 7 post dose, 6 rats per group
  additional animals euthanized: two
[1]; Day 9, 6 rats per group
  more animals euthanized: two
[1]; day 6 post-dose, 6 rats per group
  animals moribund and euthanized: 1 animal
[1]; rats, 900 μg/kg IV single dose, FIG. 32
  body weights: consistently decreased body weights
[1]; rats, 900 μg/kg IV single dose, listed as free Act D
  clinical observations, signs of toxicity: piloerection, decreased activity, bleeding at the nares, and hunched posture
[1]; rats, 900 μg/kg IV single dose, listed as free ActD
  clinical observations, signs of toxicity: piloerection and discolored urine
[1]; thirteen days post-dose
  animals remained: 1/6
[2]
  nucleolar disintegration and apoptosis: induced nucleolar disintegration and apoptosis
p53
  p53 activation (Western blot): p53 activation
[3]; patients showing adverse events, IV 1 mg/m^2 or 1.5 mg/m^2
  AUC0-6 hrs in patients showing adverse events: 4 mg·min/L
[3]; ratio
  AUC0-6 hrs, patients with adverse events versus without: 1.46 times higher
[3]; subjects not showing adverse events, IV 1 mg/m^2 or 1.5 mg/m^2
  AUC0-6 hrs in subjects not showing adverse events: 2.67 mg·min/L
[4]; listed as free API
  body weight: significant decrease in body weight
[4]; listed as free dactinomycin
  body weight: significant decrease in body weight
[4]; listed as unformulated API
  body weight: adverse effect on body weight
[5]; extrapolated to humans
  Theoretical Cmax in Humans: 7.5 ng/mL
[5]; rat, plasma, 0.3 mg/kg, rats, IV
  Cmax: 60 ng/mL
NPM1-mutated AML; Patient, FIG. 5
  mutated genes by TruSight Myeloid Panel sequencing after treatment: NMP1, IDH2 and STAG2 mutations not detected
NPM1-mutated AML; before and after therapy
  bone marrow (BM) examination after therapy: marked reduction of leukemic blast infiltration with partial normal hematopoietic recovery
NPM1-mutated AML; clinical trials, AML patients
  efficacy in clinical trials: about 60 % of the patients treated
NPM1-mutated AML; following one cycle of treatment, FIG. 8
  hematological recovery: hematological recovery
NPM1-mutated AML; subject administered 15 μg/kg for 5 days
  CT scan finding: pneumonitis
[6]
  CMAX, total (free and encapsulated) dactinomycin in plasma: lower
